Assay results published in patent US20100267561A1, “HERBICIDAL PYRIDAZINONE DERIVATIVES” (priority 2007, published 2010).

Experiments:
Assay in all cases: Test E pre-/postemergence plant response
Assay type in all cases: in vivo
[1] = test system: common groundsel (Senecio vulgaris); details: Postemergence, scale 0 to 100
Outline: (§1)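 Pre/post herbicide screen; formulation: non-phytotoxic solvent mix + surfactant. Post timing 1–4 leaves (2–18 cm ht). Greenhouse 14–21 d; visual 0 (none) to 100 (complete control) vs controls.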

[2] = test system: broadleaf signalgrass (Brachiaria platyphylla); details: scale 0 to 100
Outline: as §1

[3] = test system: southern (S.) sandbur (Cenchrus echinatus); details: scale 0 to 100
Outline: as §1

[4] = test system: purple nutsedge (Cyperus rotundus); details: scale 0 to 100
Outline: as §1

[5] = test system: green foxtail (Setaria viridis); details: scale 0 to 100
Outline: as §1

[6] = test system: surinam grass (Brachiaria decumbens); details: scale 0 to 100
Outline: as §1

[7] = test system: large crabgrass (Digitaria sanguinalis); details: scale 0 to 100
Outline: as §1

[8] = test system: johnsongrass (Sorghum halepense); details: scale 0 to 100
Outline: as §1

[9] = test system: dallisgrass (Paspalum dilatatum); details: scale 0 to 100
Outline: as §1

[10] = test system: common purslane (Portulaca oleracea); details: scale 0 to 100
Outline: as §1

[11] = test system: common mallow (Malva sylvestris); details: scale 0 to 100
Outline: as §1

[12] = test system: quackgrass (Elytrigia repens); details: scale 0 to 100
Outline: as §1

Q: `Cn1ncc(O)c(-c2nn(-c3ccc(Cl)cc3)cc2Br)c1=O` [Compound 31] was tested. Which “Plant response rating, Groundsel” value ([1]; 8 g ai/ha) did it give?
A: 0

Q: What about the “Plant response rating, Groundsel” value ([1]; 16 g ai/ha) of the same molecule?
A: 0

Q: What about the “Plant response rating, Signalgrass” value ([2]; 16 g ai/ha, Preemergence) of the same molecule?
A: 15

Q: What about the “Plant response rating, Signalgrass” value ([2]; 31 g ai/ha, Preemergence) of the same molecule?
A: 65

Q: What about the “Plant response rating, Signalgrass” value ([2]; 62 g ai/ha, Preemergence) of the same molecule?
A: 80

Q: What about the “Plant response rating, Signalgrass” value ([2]; Postemergence, 8 g ai/ha) of the same molecule?
A: 65

Q: What about the “Plant response rating, Signalgrass” value ([2]; Postemergence, 16 g ai/ha) of the same molecule?
A: 65

Q: And the “Plant response rating, Signalgrass” value ([2]; Postemergence, 31 g ai/ha)?
A: 75

Q: And the “Plant response rating, Signalgrass” value ([2]; Postemergence, 62 g ai/ha)?
A: 75

Q: And the “Plant response rating, Sandbur, S.” value ([3]; 16 g ai/ha, Preemergence)?
A: 15

Q: What about the “Plant response rating, Sandbur, S.” value ([3]; 31 g ai/ha, Preemergence) of the same molecule?
A: 20

Q: And the “Plant response rating, Sandbur, S.” value ([3]; 62 g ai/ha, Preemergence)?
A: 90

Q: What about the “Plant response rating, Sandbur, S.” value ([3]; Postemergence, 8 g ai/ha) of the same molecule?
A: 0

Q: And the “Plant response rating, Sandbur, S.” value ([3]; Postemergence, 16 g ai/ha)?
A: 70

Q: What about the “Plant response rating, Sandbur, S.” value ([3]; Postemergence, 31 g ai/ha) of the same molecule?
A: 75

Q: What about the “Plant response rating, Sandbur, S.” value ([3]; Postemergence, 62 g ai/ha) of the same molecule?
A: 75

Q: And the “Plant response rating, Nutsedge, Purple” value ([4]; 16 g ai/ha, Preemergence)?
A: 0

Q: What about the “Plant response rating, Nutsedge, Purple” value ([4]; 31 g ai/ha, Preemergence) of the same molecule?
A: 0

Q: What about the “Plant response rating, Nutsedge, Purple” value ([4]; 62 g ai/ha, Preemergence) of the same molecule?
A: 0

Q: And the “Plant response rating, Nutsedge, Purple” value ([4]; Postemergence, 8 g ai/ha)?
A: 0

Q: And the “Plant response rating, Nutsedge, Purple” value ([4]; Postemergence, 16 g ai/ha)?
A: 0

Q: And the “Plant response rating, Nutsedge, Purple” value ([4]; Postemergence, 31 g ai/ha)?
A: 0

Q: And the “Plant response rating, Nutsedge, Purple” value ([4]; Postemergence, 62 g ai/ha)?
A: 0

Q: What about the “Plant response rating, Foxtail, Green” value ([5]; 8 g ai/ha, Preemergence) of the same molecule?
A: 0

Q: What about the “Plant response rating, Foxtail, Green” value ([5]; 16 g ai/ha, Preemergence) of the same molecule?
A: 5

Q: What about the “Plant response rating, Foxtail, Green” value ([5]; 31 g ai/ha, Preemergence) of the same molecule?
A: 60

Q: What about the “Plant response rating, Foxtail, Green” value ([5]; 62 g ai/ha, Preemergence) of the same molecule?
A: 90

Q: And the “Plant response rating, Foxtail, Green” value ([5]; Postemergence, 8 g ai/ha)?
A: 50

Q: What about the “Plant response rating, Foxtail, Green” value ([5]; Postemergence, 16 g ai/ha) of the same molecule?
A: 60

Q: What about the “Plant response rating, Foxtail, Green” value ([5]; Postemergence, 31 g ai/ha) of the same molecule?
A: 70

Q: And the “Plant response rating, Foxtail, Green” value ([5]; Postemergence, 62 g ai/ha)?
A: 75

Q: And the “Plant response rating, Surinam Grass” value ([6]; 16 g ai/ha, Preemergence)?
A: 20

Q: And the “Plant response rating, Surinam Grass” value ([6]; 31 g ai/ha, Preemergence)?
A: 95

Q: What about the “Plant response rating, Surinam Grass” value ([6]; 62 g ai/ha, Preemergence) of the same molecule?
A: 95

Q: And the “Plant response rating, Surinam Grass” value ([6]; Postemergence, 8 g ai/ha)?
A: 20

Q: And the “Plant response rating, Surinam Grass” value ([6]; Postemergence, 16 g ai/ha)?
A: 50

Q: And the “Plant response rating, Surinam Grass” value ([6]; Postemergence, 31 g ai/ha)?
A: 50

Q: And the “Plant response rating, Surinam Grass” value ([6]; Postemergence, 62 g ai/ha)?
A: 75

Q: And the “Plant response rating, Crabgrass, Large” value ([7]; 8 g ai/ha, Preemergence)?
A: 0

Q: What about the “Plant response rating, Crabgrass, Large” value ([7]; 16 g ai/ha, Preemergence) of the same molecule?
A: 40

Q: What about the “Plant response rating, Crabgrass, Large” value ([7]; 31 g ai/ha, Preemergence) of the same molecule?
A: 75

Q: And the “Plant response rating, Crabgrass, Large” value ([7]; 62 g ai/ha, Preemergence)?
A: 95

Q: And the “Plant response rating, Crabgrass, Large” value ([7]; Postemergence, 8 g ai/ha)?
A: 60

Q: And the “Plant response rating, Crabgrass, Large” value ([7]; Postemergence, 16 g ai/ha)?
A: 65

Q: What about the “Plant response rating, Crabgrass, Large” value ([7]; Postemergence, 31 g ai/ha) of the same molecule?
A: 75

Q: And the “Plant response rating, Crabgrass, Large” value ([7]; Postemergence, 62 g ai/ha)?
A: 80

Q: What about the “Plant response rating, Johnsongrass” value ([8]; 16 g ai/ha, Preemergence) of the same molecule?
A: 25

Q: And the “Plant response rating, Johnsongrass” value ([8]; 31 g ai/ha, Preemergence)?
A: 80

Q: And the “Plant response rating, Johnsongrass” value ([8]; 62 g ai/ha, Preemergence)?
A: 98

Q: And the “Plant response rating, Johnsongrass” value ([8]; Postemergence, 8 g ai/ha)?
A: 40

Q: And the “Plant response rating, Johnsongrass” value ([8]; Postemergence, 16 g ai/ha)?
A: 60

Q: And the “Plant response rating, Johnsongrass” value ([8]; Postemergence, 31 g ai/ha)?
A: 75

Q: And the “Plant response rating, Johnsongrass” value ([8]; Postemergence, 62 g ai/ha)?
A: 100

Q: What about the “Plant response rating, Dallisgrass” value ([9]; 8 g ai/ha, Preemergence) of the same molecule?
A: 0

Q: And the “Plant response rating, Dallisgrass” value ([9]; 16 g ai/ha, Preemergence)?
A: 15

Q: What about the “Plant response rating, Dallisgrass” value ([9]; 31 g ai/ha, Preemergence) of the same molecule?
A: 75

Q: And the “Plant response rating, Dallisgrass” value ([9]; 62 g ai/ha, Preemergence)?
A: 98

Q: What about the “Plant response rating, Dallisgrass” value ([9]; Postemergence, 8 g ai/ha) of the same molecule?
A: 35

Q: And the “Plant response rating, Dallisgrass” value ([9]; Postemergence, 16 g ai/ha)?
A: 40

Q: And the “Plant response rating, Dallisgrass” value ([9]; Postemergence, 31 g ai/ha)?
A: 60

Q: What about the “Plant response rating, Dallisgrass” value ([9]; Postemergence, 62 g ai/ha) of the same molecule?
A: 70

Q: What about the “Plant response rating, Purslane” value ([10]; 16 g ai/ha, Preemergence) of the same molecule?
A: 0

Q: What about the “Plant response rating, Purslane” value ([10]; 31 g ai/ha, Preemergence) of the same molecule?
A: 0

Q: What about the “Plant response rating, Purslane” value ([10]; 62 g ai/ha, Preemergence) of the same molecule?
A: 0

Q: And the “Plant response rating, Purslane” value ([10]; Postemergence, 8 g ai/ha)?
A: 0

Q: And the “Plant response rating, Purslane” value ([10]; Postemergence, 16 g ai/ha)?
A: 0

Q: And the “Plant response rating, Purslane” value ([10]; Postemergence, 31 g ai/ha)?
A: 0

Q: And the “Plant response rating, Purslane” value ([10]; Postemergence, 62 g ai/ha)?
A: 0

Q: What about the “Plant response rating, Mallow” value ([11]; 31 g ai/ha, Preemergence) of the same molecule?
A: 0

Q: What about the “Plant response rating, Mallow” value ([11]; 62 g ai/ha, Preemergence) of the same molecule?
A: 0

Q: What about the “Plant response rating, Mallow” value ([11]; Postemergence, 8 g ai/ha) of the same molecule?
A: 0

Q: And the “Plant response rating, Mallow” value ([11]; Postemergence, 16 g ai/ha)?
A: 0

Q: And the “Plant response rating, Mallow” value ([11]; Postemergence, 31 g ai/ha)?
A: 0

Q: And the “Plant response rating, Mallow” value ([11]; Postemergence, 62 g ai/ha)?
A: 0

Q: What about the “Plant response rating, Quackgrass” value ([12]; 16 g ai/ha, Preemergence) of the same molecule?
A: 0

Q: And the “Plant response rating, Quackgrass” value ([12]; 31 g ai/ha, Preemergence)?
A: 20

Q: And the “Plant response rating, Quackgrass” value ([12]; 62 g ai/ha, Preemergence)?
A: 65

Q: What about the “Plant response rating, Quackgrass” value ([12]; Postemergence, 8 g ai/ha) of the same molecule?
A: 0

Q: What about the “Plant response rating, Quackgrass” value ([12]; Postemergence, 16 g ai/ha) of the same molecule?
A: 30

Q: What about the “Plant response rating, Quackgrass” value ([12]; Postemergence, 31 g ai/ha) of the same molecule?
A: 30

Q: What about the “Plant response rating, Quackgrass” value ([12]; Postemergence, 62 g ai/ha) of the same molecule?
A: 50
